The results in this text go back to patent US9164053B2, “Electronic device for monitoring single molecule dynamics” (THE REGENTS OF THE UNIVERSITY OF CALIFORNIA, priority 2011, dated 2015).

Experiment [1] has as its target T1, lysozyme (Enterobacteria phage T4, UniProt P00720, C54T/C97A/S90C).
T1 construct: made in house
In kind it is biochemical.
Description: The single sensitizing molecule is a cysteine variant of T4 lysozyme which contains a single substituted cysteine as the mutation S90C to provide a reactive thiol for bio-conjugation. […] A 54 μM solution of the cysteine variant of T4 lysozyme in phosphate buffer (20 mM Na2HPO4, pH 7) is prepared. Devices dilutely coated with the linker molecule pyrene maleimide non-covalently attached to the SWNT were soaked in the lysozyme solution at room temperature for 60 minutes without agitation. Devices were then soaked in wash buffer (5 mM KCl, 10 mM Na2HPO4, 0.05% polysorbate 20, pH 7) for 30 minutes with shaking to remove unattached lysozyme. Devices were finally rinsed under flowing de-ionized water for 5 minutes.

The target of experiment [2] is T2, DNA polymerase 1 (Klenow Fragment, KF) (Escherichia coli, UniProt P00582, L790C).
T2 construct: a cysteine variant of the Klenow fragment of DNA polymerase 1 (KF); made in house
T2 sequence (P00582 324-928 L790C): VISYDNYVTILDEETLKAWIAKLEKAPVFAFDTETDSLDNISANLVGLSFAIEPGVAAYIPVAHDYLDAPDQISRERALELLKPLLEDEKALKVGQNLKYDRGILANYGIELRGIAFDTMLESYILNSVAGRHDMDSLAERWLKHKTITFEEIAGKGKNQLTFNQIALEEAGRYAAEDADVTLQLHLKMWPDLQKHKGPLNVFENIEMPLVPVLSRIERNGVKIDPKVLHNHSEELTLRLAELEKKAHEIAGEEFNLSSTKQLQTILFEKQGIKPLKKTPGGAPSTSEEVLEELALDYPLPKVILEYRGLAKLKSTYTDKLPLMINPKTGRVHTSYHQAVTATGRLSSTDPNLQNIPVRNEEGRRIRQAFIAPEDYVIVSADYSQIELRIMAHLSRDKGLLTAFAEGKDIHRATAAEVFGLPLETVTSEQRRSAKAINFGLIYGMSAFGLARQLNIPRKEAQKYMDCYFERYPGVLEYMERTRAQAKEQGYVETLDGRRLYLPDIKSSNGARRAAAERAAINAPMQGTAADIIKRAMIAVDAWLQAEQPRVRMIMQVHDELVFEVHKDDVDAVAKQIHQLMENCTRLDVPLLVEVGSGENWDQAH
The experiment in a line: DNA polymerase I (Klenow fragment) single molecule device, nucleotide incorporation. The following applies: for average ΔI signal amplitude of incorporation, rank among four bases: FIG. 16C; for turnover rate / τ hi / τ lo: homopolymer DNA substrate with complementary nucleotide. It counts as biochemical, E. Coli. The protocol:
The linker molecule is pyrene maleimide, with the pyrene functional group non-covalently attached to the SWNT sidewall. The single sensitizing molecule is a cysteine variant of the Klenow fragment of DNA polymerase 1 (KF) derived from E. Coli, which contains a single inserted cysteine at site 790 to provide a reactive thiol for bio-conjugation. The cysteine variant of KF was synthesized by methods known in the art. A 0.2 mg/mL solution of the cysteine variant of KF in activation buffer (10 mM Tris-HCl, 10 mM MgCl2, 50 mM NaCl, 1 mM DTT, pH 7.9) is prepared. Devices dilutely coated with the linker molecule pyrene maleimide non-covalently attached to the SWNT were soaked in the KF solution at room temperature for 60 minutes without agitation. Devices were then soaked in wash buffer (10 mM Tris-HCl, 10 mM MgCl2, 50 mM NaCl, 0.1 mM TCEP, 0.1% polysorbate 20, pH 7.9) for 30 minutes with shaking to remove unattached KF. Devices were finally rinsed under flowing activation buffer for 5 minutes and stored in this solution until used. These conditions lead to a density of approximately one KF molecule per micrometer of exposed SWNT.
In the preferred embodiment of Example 3, the sensitizing molecule is DNA polymerase 1 (Klenow Fragment, KF), and the chemical environment is a 100 nM solution of deoxyribonucleic acid (DNA) template and 100 μM deoxyribonucleotide triphosphate (dNTP) in buffer (50 mM NaCl, 10 mM MgCl2, 20 mM Tris, 10 mM dithiothreitol, pH 7.8). As before, high (Ihi) and low (Ilo) current values are observed during chemical activity and monitored in time. […] Transient pulses to a smaller current Ilo occur in the presence of chemical activity, which in this system requires the simultaneous presence of DNA template, dNTP to be incorporated, and Mg^2+ ions. Electrical transitions from Ihi to Ilo indicate the incorporation of one nucleotide into the template and can be statistically analyzed in the same ways as described for lysozyme.
FIGS. 15A-15D illustrate the signals produced by this embodiment when measured in buffer with different combinations of substrate and nucleotides. FIGS. 15A and 15B show the response of a KF sensitizing molecule measured with at least 10 nM polyC substrate and an excess of dGTP on 1 second and 0.1 second time scales, respectively. In the latter graph, the timing and amplitude of individual events are clearly resolved. Each event represents the addition of the nucleotide dGTP to the polyC substrate. FIGS. 15C and 15D show the same device measured with at least 10 nM polyA substrate and an excess of dTTP on identical time scales. On average, the individual events in FIG. 15D have shorter durations and higher amplitudes than the events in FIG. 15B. When either substrate or nucleotides are absent in these measurements, no transitions to Ilo are observed. Again, with reference to FIG. 15D, each event (dip in measured current) represents the addition of the nucleotide dTTP to the poly A substrate.
The device is capable of distinguishing all four types of base incorporation, and allows large numbers of individual events to be analyzed statistically. FIGS. 16A-16C illustrates typical types of analysis performed on data generated by a single KF protein in the presence of different combinations of DNA substrates and nucleotides. FIG. 16A plots the single-molecule probability distributions for the Ihi states of all four bases A, C, G, and T. Fits to each distribution are shown as solid lines and determine the mean value of τhi for each base pair. FIG. 16B plots the distributions for the four Ilo states and gives the values of τlo. The values of τhi are much longer than τlo and therefore they determine the overall turnover rate of the KF protein for a particular type of base. The data distinguish dGTP and dCTP as having shorter incorporation times and faster turnover rates than either dTTP or dATP. […]

Experiment [3] in a line: single molecule sensing device, lysozyme processing peptidoglycan (current fluctuations). In kind it is biochemical. The protocol:
The linker molecule is pyrene maleimide, with the pyrene functional group non-covalently attached to the SWNT sidewall. The single sensitizing molecule is a cysteine variant of T4 lysozyme which contains a single substituted cysteine as the mutation S90C to provide a reactive thiol for bio-conjugation. The cysteine variant of T4 lysozyme was synthesized by methods known in the art. A 54 μM solution of the cysteine variant of T4 lysozyme in phosphate buffer (20 mM Na2HPO4, pH 7) is prepared. Devices dilutely coated with the linker molecule pyrene maleimide non-covalently attached to the SWNT were soaked in the lysozyme solution at room temperature for 60 minutes without agitation. Devices were then soaked in wash buffer (5 mM KCl, 10 mM Na2HPO4, 0.05% polysorbate 20, pH 7) for 30 minutes with shaking to remove unattached lysozyme. Devices were finally rinsed under flowing de-ionized water for 5 minutes. These conditions lead to a density of approximately one T4 lysozyme molecule per micrometer of exposed SWNT.
The fully fabricated device is used by submerging the device in a gaseous or liquid environment. Temperature of the environment should be controlled and held constant and, in the case of liquids, so should the pH and electrochemical potential. An electrical bias is created and held constant between the source and the drain electrode. The current between the source, and the drain is measured over time and collected as control data points. The device is then exposed to a different chemical environment, and the levels of the current between the source and the drain is measured over time collected as experimental data points.
In the embodiment of Example 2, the sensitizing molecule was lysozyme, and the chemical environment is 25 μg/ml peptidoglycan substrate in PBS buffer. The high (Ihi) and the low current values (Ilo) after the device is exposed to the peptidoglycan are measured over time. The parameters of the relative difference ΔI=(Ihi−Ilo)/Ilo are statistically analyzed, and have been determined to be the most reliable way to analyze the conformational changes in the sensitizing molecule. […] Ihi, on the other hand, is substantially larger and is assigned to the mechanically-closed conformation of lysozyme around a bound peptidoglycan molecule. Electrical transitions from Ilo to Ihi indicate the hinge-like closure of lysozyme as it attempts to catalytically cleave a glycosidic bond of the peptidoglycan.
In the more preferred embodiment, oscillations in the electrical current between Ilo and Ihi occur with a broad distribution of stochastic durations that mirror the enzyme's activity. Sequences of ten or more oscillations can be categorized into one of two activity types, one slow and one fast. The slow oscillation corresponds to productive enzyme activity where the enzyme is successfully cleaving bonds of the peptidoglycan. […] The amplitude of the signal ΔI is nearly the same in both slow and fast oscillations and is measured to be nearly constant, which supports a conclusion that the same range of molecular motion is being measured for both types of activity. This concurs with data from FRET which has previously proven that the range of mechanical motion in lysozyme is the same for both types of activity.
FIG. 2A illustrates an extended sequence of current fluctuation over 30 seconds, with the mean value highlighted using the setup of Example 2. […] The fast oscillations occur on average 300 times per second. The slow oscillations occur on average 15 times per second. The exact rate of either oscillation varies from one conformation to another, so that long-duration measurements observe the conversion of the enzyme to different possible rates. In different minutes of measurement, the same protein can undergo slow oscillations varying from 10 to 80 times per second.
FIG. 4 summarizes the data with mean values of τlo and τhi. Another figure of merit for each parameter is the statistical variance. […]

As for `O=C(O)CCc1c[nH]c2ccccc12` [I3P, indole-3-propionic acid], in experiment [1] (10 mM I3P), the “pulse amplitude ΔI” value is listed as “+20%” and the “pulse duration τhi” value was under 1 ms. Besides, the “interactions with inhibitor in electronic I(t) signals” value in experiment [1] (weakly-interacting, non-covalent inhibitors) is given as “clearly observed”.
As for `Nc1ncnc2c1ncn2[C@H]1C[C@H](O)[C@@H](COP(=O)(O)OP(=O)(O)OP(=O)(O)O)O1` [dATP], in experiment [2], the “average ΔI signal amplitude of incorporation, rank among four bases” value is “largest”; the turnover rate worked out at 14.4 ± 2.9 s⁻¹; the τ hi came to 71.4 ± 14.3 ms; the τ lo is given as 0.33 ± 0.08 ms.
For `Nc1ccn([C@H]2C[C@H](O)[C@@H](COP(=O)(O)OP(=O)(O)OP(=O)(O)O)O2)c(=O)n1` [dCTP], in experiment [2], the turnover rate was 26.2 ± 4.4 s⁻¹, the τ hi worked out at 39.0 ± 5.6 ms and the τ lo turned out to be 0.32 ± 0.07 ms.
As to `Nc1nc2c(ncn2[C@H]2C[C@H](O)[C@@H](COP(=O)(O)OP(=O)(O)OP(=O)(O)O)O2)c(=O)[nH]1` [dGTP], in experiment [2], the “average ΔI signal amplitude of incorporation, rank among four bases” value is “smallest”; the turnover rate worked out at 28.5 ± 3.5 s⁻¹; the τ hi is 38.0 ± 5.8 ms; the τ lo worked out at 0.33 ± 0.06 ms.
On to `Cc1cn([C@H]2C[C@H](O)[C@@H](COP(=O)(O)OP(=O)(O)OP(=O)(O)O)O2)c(=O)[nH]c1=O` [dTTP], for which, in experiment [2], the turnover rate was determined as 16.0 ± 2.9 s⁻¹, the τ hi is 63.7 ± 11.4 ms and the τ lo worked out at 0.42 ± 0.09 ms.
In the case of lysozyme, the normalized variance rhi in experiment [3] (Nonproductive (fast), pH 5) is 0.48 ± 0.10; in experiment [3] (Nonproductive (fast), pH 7) it was 0.43 ± 0.06; in experiment [3] (Nonproductive (fast), pH 11) it was 0.61 ± 0.08; in experiment [3] (Processing (slow), pH 5), 0.68 ± 0.15; in experiment [3] (Processing (slow), pH 7) it was 0.74 ± 0.12; in experiment [3] (Processing (slow), pH 11), 0.60 ± 0.15. The normalized variance rlo in experiment [3] (Nonproductive (fast), pH 5) was 0.97 ± 0.13; in experiment [3] (Nonproductive (fast), pH 7), 0.99 ± 0.09; in experiment [3] (Nonproductive (fast), pH 11) it was 1.00 ± 0.10; in experiment [3] (Processing (slow), pH 5), 1.00 ± 0.18; in experiment [3] (Processing (slow), pH 7) it was 1.06 ± 0.15; in experiment [3] (Processing (slow), pH 11) it was 1.11 ± 0.23. Moreover, in experiment [3] (catalytic processing, 25 μg/ml peptidoglycan in PBS), the “slow oscillations, average rate” value is given as 15 times per second. Further, the time spent processing in experiment [3] (linear peptidoglycan substrate without crosslinks) is listed as 88%; in experiment [3] (peptidoglycan substrate containing crosslinks), 51%. Also, in experiment [3] (nonproductive binding, 25 μg/ml peptidoglycan in PBS), the “fast oscillations, average rate” value is 300 times per second.
